In PubChem BioAssay AID208 (DTP/NCI, 2004):
Several values for one entry are separate records, joined by “and”; a condition that tells them apart may be missing. Equal entries are not always repeated. Results filed as inconclusive are left out.

System: HT29 intrarenal xenograft, nude mice, tumor weight change
Test: NCI In Vivo Anticancer Drug Screen. Data for tumor model HT29;CX-1 Human Adenocarcinoma (MER+) (intrarenal inoculation) in NU/NU BALB/C (nude) mice
Settings: endpoint: mean tumor weight change, higher = larger tumour
Procedure: The antitumor activity of compounds was measured in mice bearing transplantable tumors. Survival or tumor size were measured and the results are expressed as the measurement made in the treated group (T) divided by the measurement made in the vehicle treated control group (C). The tumor model used in this assay is HT29;CX-1 Human Adenocarcinoma (MER+) (intrarenal inoculation) in NU/NU BALB/C (nude) mice

[1] = dose: 150.0 mg/kg/injection, schedule: Q04DX004 (sc), vehicle: saline
[2] = dose: 200.0 mg/kg/injection, schedule: Q04DX004 (sc), vehicle: saline
[3] = dose: 300.0 mg/kg/injection, schedule: Q04DX004 (sc), vehicle: Klucel (hydroxypropylcellulose) (HPC)
[4] = dose: 600.0 mg/kg/injection, schedule: Q04DX004 (sc), vehicle: Klucel (hydroxypropylcellulose) (HPC)
[5] = dose: 1200.0 mg/kg/injection, schedule: Q04DX004 (sc), vehicle: Klucel (hydroxypropylcellulose) (HPC)
[6] = dose: 50.0 mg/kg/injection, schedule: Q04DX004 (sc), vehicle: saline

## Nc1nc2c(ncn2C2OC(CO)C(O)C2O)c(=O)[nH]1 (configuration not stated)
dose: 225.0 mg/kg/injection, schedule: Q04DX004 (sc), vehicle: saline with Tween-80
  T/C: 84 % of control
dose: 450.0 mg/kg/injection, schedule: Q04DX004 (sc), vehicle: saline with Tween-80
  T/C: 96 % of control
dose: 900.0 mg/kg/injection, schedule: Q04DX004 (sc), vehicle: saline with Tween-80
  T/C: 55 % of control
dose: 1800.0 mg/kg/injection, schedule: Q04DX004 (sc), vehicle: saline with Tween-80
  T/C: 100 % of control

## CN(C)N=Nc1ccc(S(N)(=O)=O)cc1
dose: 100.0 mg/kg/injection, schedule: Q01DX010 (sc), vehicle: Klucel (hydroxypropylcellulose) (HPC)
  T/C: 81 % of control
dose: 200.0 mg/kg/injection, schedule: Q01DX010 (sc), vehicle: Klucel (hydroxypropylcellulose) (HPC)
  T/C: 104 % of control

## CCn1cnc2c(=S)nc[nH]c21
[1]
  T/C: 175 % of control

## Nc1nc2ccc(NCc3ccc(C(=O)NC(CCC(=O)O)C(=O)O)cc3)cc2c(=O)[nH]1 (configuration not stated)
dose: 200.0 mg/kg/injection, schedule: Q04DX004 (sc), vehicle: saline with Tween-80
  T/C: 92 % of control
dose: 400.0 mg/kg/injection, schedule: Q04DX004 (sc), vehicle: saline with Tween-80
  T/C: 105 % of control

## Cc1cc(N)c2ccccc2[n+]1CCCCCCCCCC[n+]1c(C)cc(N)c2ccccc21
dose: 0.38 mg/kg/injection, schedule: Q01DX010 (ip), vehicle: dextrose
  T/C: 101 % of control
dose: 0.75 mg/kg/injection, schedule: Q01DX010 (ip), vehicle: dextrose
  T/C: 101 % of control
dose: 1.5 mg/kg/injection, schedule: Q01DX010 (ip), vehicle: dextrose
  T/C: 81 % of control

## CC(C)CCC(=O)c1ccoc1
dose: 0.75 mg/kg/injection, schedule: Q01DX010 (ip), vehicle: saline with Tween-80
  T/C: 85 % of control
dose: 1.5 mg/kg/injection, schedule: Q01DX010 (ip), vehicle: saline with Tween-80
  T/C: 87 % of control
dose: 3.0 mg/kg/injection, schedule: Q01DX010 (ip), vehicle: saline with Tween-80
  T/C: 75 % of control and 91 % of control
dose: 6.0 mg/kg/injection, schedule: Q01DX010 (ip), vehicle: saline with Tween-80
  T/C: 74 % of control and 94 % of control

## CN=C(NC#N)NCCSCc1nc[nH]c1C
dose: 225.0 mg/kg/injection, schedule: Q04DX004 (sc), vehicle: Klucel (hydroxypropylcellulose) (HPC)
  T/C: 75 % of control
dose: 450.0 mg/kg/injection, schedule: Q04DX004 (sc), vehicle: Klucel (hydroxypropylcellulose) (HPC)
  T/C: 99 % of control
dose: 900.0 mg/kg/injection, schedule: Q04DX004 (sc), vehicle: Klucel (hydroxypropylcellulose) (HPC)
  T/C: 92 % of control

## NCCCNCCSP(=O)(O)O
[2]
  T/C: 102 % of control

## C1OC1CO[C@@H]1CO[C@H]2[C@@H]1OC[C@H]2OCC1CO1 (some centres not stated)
dose: 50.0 mg/kg/injection, schedule: Q01DX010 (sc), vehicle: saline with Tween-80
  T/C: 121 % of control
dose: 100.0 mg/kg/injection, schedule: Q01DX010 (sc), vehicle: saline with Tween-80
  T/C: 64 % of control
dose: 200.0 mg/kg/injection, schedule: Q01DX010 (sc), vehicle: saline with Tween-80
  T/C: 103 % of control

## COC1C(C)OC(OC2CC(C)(O)Cc3cc4c(c(O)c32)C(=O)c2c(O)cc3c(c2C4=O)OC2OC3(C)C(O)C(N(C)C)C2O)C(OC)C1(C)OC (configuration not stated)
dose: 20.0 mg/kg/injection, schedule: Q04DX004 (sc), vehicle: Klucel (hydroxypropylcellulose) (HPC)
  T/C: 74 % of control
dose: 40.0 mg/kg/injection, schedule: Q04DX004 (sc), vehicle: Klucel (hydroxypropylcellulose) (HPC)
  T/C: 49 % of control

## O=P1(NCCCl)OCCCN1CCCl (configuration not stated)
dose: 75.0 mg/kg/injection, schedule: Q04DX004 (sc), vehicle: saline
  T/C: 68 % of control

## CCN1C=C/C(=C\C=C/c2cc[n+](CC)c3ccccc23)c2ccccc21
dose: 0.5 mg/kg/injection, schedule: Q01DX010 (sc), vehicle: saline
  T/C: 229 % of control

## CN(C)c1ccc2c(NCCCCCCNc3ccnc4cc(N(C)C)ccc34)ccnc2c1
dose: 37.5 mg/kg/injection, schedule: Q04DX004 (sc), vehicle: distilled water + Tween-80 + alcohol
  T/C: 92 % of control
dose: 75.0 mg/kg/injection, schedule: Q04DX004 (sc), vehicle: distilled water + Tween-80 + alcohol
  T/C: 60 % of control
dose: 150.0 mg/kg/injection, schedule: Q04DX004 (sc), vehicle: distilled water + Tween-80 + alcohol
  T/C: 54 % of control

## O=[N+]([O-])O.O=[N+]([O-])O.[NH-]C1CCCCC1[NH-].[Pt+2] (configuration not stated)
dose: 0.5 mg/kg/injection, schedule: Q01DX010 (sc), vehicle: dextrose
  T/C: 87 % of control
dose: 1.0 mg/kg/injection, schedule: Q01DX010 (sc), vehicle: dextrose
  T/C: 62 % of control
dose: 2.0 mg/kg/injection, schedule: Q01DX010 (sc), vehicle: dextrose
  T/C: 36 % of control

## CSc1ncnc2c1ncn2C1OC(CO)C(O)C1O (configuration not stated)
dose: 37.5 mg/kg/injection, schedule: Q04DX004 (sc), vehicle: saline + alcohol
  T/C: 101 % of control
dose: 75.0 mg/kg/injection, schedule: Q04DX004 (sc), vehicle: saline + alcohol
  T/C: 30 % of control
dose: 150.0 mg/kg/injection, schedule: Q04DX004 (sc), vehicle: saline + alcohol
  T/C: 12 % of control

## [Cl][Hg][Cl]
dose: 2.5 mg/kg/injection, schedule: Q04DX004 (ip), vehicle: saline
  T/C: 155 % of control
dose: 5.0 mg/kg/injection, schedule: Q04DX004 (ip), vehicle: saline
  T/C: 68 % of control

## O=C(Nc1cccc2c(OC(=O)C(Cl)Cl)c(N=Nc3ccc(S(=O)(=O)Nc4nccs4)cc3)cc(N=Nc3ccc(S(=O)(=O)Nc4nccs4)cc3)c12)C(Cl)Cl (tested in a mixture with another compound)
dose: 300.0 mg/kg/injection, schedule: Q04DX004 (sc), vehicle: saline with Tween-80
  T/C: 58 % of control
dose: 600.0 mg/kg/injection, schedule: Q04DX004 (sc), vehicle: saline with Tween-80
  T/C: 89 % of control
dose: 1200.0 mg/kg/injection, schedule: Q04DX004 (sc), vehicle: saline with Tween-80
  T/C: 78 % of control
dose: 2400.0 mg/kg/injection, schedule: Q04DX004 (sc), vehicle: saline with Tween-80
  T/C: 159 % of control

## O=C1N[C@@H]2C(=C[C@H](O)[C@@H](O)[C@H]2O)c2cc3c(c(O)c21)OCO3
dose: 5.0 mg/kg/injection, schedule: Q04DX004 (sc), vehicle: saline with Tween-80
  T/C: 177 % of control

## O=C(O)CC(NC(=O)CP(=O)(O)O)C(=O)O (configuration not stated)
dose: 25.0 mg/kg/injection, schedule: Q01DX010 (sc), vehicle: saline
  T/C: 123 % of control
dose: 50.0 mg/kg/injection, schedule: Q01DX010 (sc), vehicle: saline
  T/C: 94 % of control
dose: 100.0 mg/kg/injection, schedule: Q01DX010 (sc), vehicle: saline
  T/C: 91 % of control
dose: 200.0 mg/kg/injection, schedule: Q01DX010 (sc), vehicle: saline
  T/C: 70 % of control

## Cc1c(N)nc(C(CC(N)=O)NCC(N)C(N)=O)nc1C(=O)NC(C(=O)NC(C)C(O)C(C)C(=O)NC(C(=O)NCCc1nc(-c2nc(C(=O)NCCCNC(C)c3ccccc3)cs2)cs1)C(C)O)C(OC1OC(CO)C(O)C(O)C1OC1OC(CO)C(O)C(OC(N)=O)C1O)c1cnc[nH]1 (configuration not stated)
dose: 4.0 mg/kg/injection, schedule: Q01DX010 (sc), vehicle: saline
  T/C: 11 % of control
dose: 16.0 mg/kg/injection, schedule: Q01DX010 (sc), vehicle: saline
  T/C: 25 % of control

## COC(=O)Nc1nc2ccc(SC)cc2c(=O)[nH]1
[3]
  T/C: 122 % of control
[4]
  T/C: 95 % of control
[5]
  T/C: 48 % of control
dose: 2400.0 mg/kg/injection, schedule: Q04DX004 (sc), vehicle: Klucel (hydroxypropylcellulose) (HPC)
  T/C: 37 % of control

## NC(=O)c1ccc[n+](Cc2c(Cl)cccc2Cl)c1
dose: 25.0 mg/kg/injection, schedule: Q04DX004 (sc), vehicle: saline
  T/C: 93 % of control
[6]
  T/C: 91 % of control
[2]
  T/C: 205 % of control

## CC1=C/C(O)CC(=O)Cc2nc(co2)C(=O)N2CCC=C2C(=O)OC(C(C)C)C(C)/C=C\C(=O)NC/C=C\1 (configuration not stated)
dose: 150.0 mg/kg/injection, schedule: Q04DX004 (sc), vehicle: Klucel (hydroxypropylcellulose) (HPC)
  T/C: 66 % of control
[3]
  T/C: 92 % of control
[4]
  T/C: 54 % of control
[5]
  T/C: 85 % of control

## CC1(C)COCN1COCCOCN1COCC1(C)C
[6]
  T/C: 66 % of control
dose: 100.0 mg/kg/injection, schedule: Q04DX004 (sc), vehicle: saline
  T/C: 122 % of control
[2]
  T/C: 58 % of control
dose: 400.0 mg/kg/injection, schedule: Q04DX004 (sc), vehicle: saline
  T/C: 122 % of control

## CC(C)C(N)C(=O)Nc1nncs1 (configuration not stated)
[1]
  T/C: 94 % of control
dose: 300.0 mg/kg/injection, schedule: Q04DX004 (sc), vehicle: saline
  T/C: 74 % of control
dose: 600.0 mg/kg/injection, schedule: Q04DX004 (sc), vehicle: saline
  T/C: 68 % of control
